{"source": "paper PMC9346089", "about": "(The FEBS journal, 2022)", "conditions_in_all_cases": "5 uM vitamin K epoxide in medium; HEK293 VKORC1/VKORL1 knockout", "key": {"[1]": {"system": "M1"}, "[2]": {"system": "M2"}, "[3]": {"system": "S3-TM5/Trx", "test": "cell-based gamma-carboxylation reporter", "design": "species or system Synechococcus sp. JA-2-3B'a(2-13)"}, "[4]": {"system": "S3", "test": "cell-based gamma-carboxylation reporter", "design": "species or system Synechococcus sp. JA-2-3B'a(2-13)"}}}
{"smiles": "CC(=O)CC(c1ccccc1)c1c(O)c2ccccc2oc1=O", "note": "(stereo not shown) [warfarin]", "values": [{"measurement": "IC50", "setting": "[1]", "value": 400, "unit": "nM"}, {"measurement": "IC50", "setting": "[2]", "value": 1870, "unit": "nM"}, {"measurement": "IC50", "setting": "[3]", "value": 1110, "unit": "nM"}, {"measurement": "IC50", "setting": "[4]", "value": 190, "unit": "nM"}]}
